Test results taken from patent US10449182B2 (The Regents of the University of California, priority 2012, dated 2019).

How the values were obtained:
p21 [1] = experiment: p21 levels by immunoblotting in ACHN and/or 786-O cells; assay type: cell-based, human; details: 24 h of culture with compound, immunoblot; further: key: + denotes inhibition of p21 secretion or the absence of p21; − denotes the presence of p21
Procedure: Cells harvested after growth to confluence in 10% serum-containing media and treatment with compounds of the invention were washed with phosphate buffered saline (PBS) and lysed in lysis buffer composed of 50 mM HEPES, 1% Triton X-100, 10 mM sodium pyrophosphate, 100 mM sodium fluoride and 4 mM EDTA at 4° C. Cell lysates were pelleted. Supernatants were electrophoresed and immunoblotted. Membranes were blocked in 5% nonfat dry milk for 30 min at room temperature and probed with p21 antibody. Membranes were then probed with horseradish peroxidase tagged anti-mouse or anti-rabbit IgG antibodies (diluted 3:20,000 and 3:10,000 in 5% nonfat dry milk, respectively) for 2 h at room temperature. Signal was detected using enhanced chemiluminescence (ECL) solutions.

Raf-1 = target: T1, Raf-1 (Homo sapiens, UniProt P04049); experiment: Recombinant Raf kinase inhibition (ADP-Glo Kinase Assay), Raf-1; assay type: biochemical; details: 10 nM Raf kinase, 1 μM MEK-1, 10 μM ATP, 22° C., 1 hour
T1 construct: Full length recombinant Raf-I and b-Raf (V600E) kinases; purchased US Biological (Swampscott, Mass.)
Procedure: (§1) All assays were performed using 10 nM Raf kinase, 1 μM MEK-1, 10 μM ATP, at 22° C. for 1 hour. Inhibitors were dissolved in DMSO and IC50 values were obtained by measuring the change in the ADP production (luminescent signal intensity) at various inhibitor concentrations as compared to the control. Individual data sets were performed in duplicate and each IC50 value was determined from three separate experiments. The data were fit to a saturation curve using KaleidaGraph graphing program (Synergy Software) to determine the IC50 values.

human sEH = target: T2, human sEH (Homo sapiens, UniProt P34913); experiment: Inhibitory activity against human sEH; assay type: biochemical; details: read-out: % Inhibition (IC50) Human sEH
T2 sequence (P34913 1-555): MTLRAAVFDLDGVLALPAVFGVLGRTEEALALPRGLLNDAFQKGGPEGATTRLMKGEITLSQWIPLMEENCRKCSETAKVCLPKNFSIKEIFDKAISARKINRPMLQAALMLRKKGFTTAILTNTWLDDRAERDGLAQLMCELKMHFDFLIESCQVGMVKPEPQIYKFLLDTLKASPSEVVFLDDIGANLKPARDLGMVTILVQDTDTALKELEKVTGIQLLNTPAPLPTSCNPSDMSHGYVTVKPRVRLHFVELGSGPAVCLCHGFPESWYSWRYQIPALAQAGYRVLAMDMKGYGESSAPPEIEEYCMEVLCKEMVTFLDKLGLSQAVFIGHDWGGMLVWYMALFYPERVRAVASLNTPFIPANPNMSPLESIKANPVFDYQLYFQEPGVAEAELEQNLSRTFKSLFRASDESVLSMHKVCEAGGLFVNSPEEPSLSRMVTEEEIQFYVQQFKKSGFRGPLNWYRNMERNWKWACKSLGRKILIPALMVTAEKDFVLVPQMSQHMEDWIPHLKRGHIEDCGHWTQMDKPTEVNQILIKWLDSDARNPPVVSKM

b-Raf (V600E) = target: T3, b-Raf (V600E) (Homo sapiens, UniProt P15056, V600E); experiment: Recombinant Raf kinase inhibition (ADP-Glo Kinase Assay), b-Raf (V600E); assay type: biochemical; details: 10 nM Raf kinase, 1 μM MEK-1, 10 μM ATP, 22° C., 1 hour
T3 construct: Full length recombinant Raf-I and b-Raf (V600E) kinases; purchased US Biological (Swampscott, Mass.)
Procedure: as §1

p21 [2] = experiment: Immunoblotting of p21 and other proteins in normal kidney and cancer cells (FIG. 2); assay type: cell-based, human; details: HK2, 786-O, Caki-1, ACHN and Hey cells, 24 h, immunoblot
Procedure: FIG. 2. […] The cells were harvested and immunoblotted with the antibodies indicated. (A) p21 and (B) p-Akt, p-ERK, t-Akt, t-ERK and p53 proteins are shown. β-actin is a loading control for each membrane. The experiment shown is representative of at least 3 separate experiments.
(§2) Immunoblotting was performed as previously described.^19 Briefly, after appropriate treatments, the cells were washed with phosphate buffered saline (PBS) and lysed in lysis buffer. Cell lysates were immunoblotted. Membranes were blocked in 5% nonfat dry milk for one hour at room temperature and probed with appropriate antibodies. Membranes were then probed with horseradish peroxidase tagged anti-mouse or anti-rabbit IgG antibodies. Signal was detected using ECL solutions.

p21 mRNA = experiment: Reverse transcriptase-PCR of p21 mRNA in 786-O cells (FIG. 3A); assay type: cell-based, human; details: 10 μM, RT-PCR
Procedure: (§3) FIG. 3. […] 786-O cells were grown to confluence in 10% serum containing media and: (A) treated with Compound 2288 at 10 μM concentration or vehicle (DMSO) for the indicated time. mRNA was isolated and RT-PCR was performed as described in Materials and Methods. GAP DH is a loading control. (B) exposed to CHX (35 μM), Compound 2288 (10 μM). CHX (10 μg/ml) and Compound 2288 (10 μM), or vehicle (DMSO) for the indicated times and immunoblotting was performed with the antibodies indicated. β-actin is a loading control. The experiments shown are representative of at least 3 separate experiments.
Total mRNA was collected and cDNA synthesized using a Qiagen RNeasykit (Valencia, Calif.) following manufacture's protocol. The PCR primers used are 5′-[…]-3′ (p21 sense), 5′-[…]-3′ (p21 antisense), 5′-[…]-3′ (GAPDH sense), and 5′-[…]-3′ (GAPDH antisense). Reverse-transcribed cDNA was subjected to 40 cycles. Thermal cycling conditions are as follows: denaturation for 30 seconds at 94° C. annealing for 30 seconds at 56.5° C. and elongation for 1 minute at 72° C. DNA was analyzed by 2% ethidium bromide agarose gel electrophoresis.

p21 [3] = experiment: p21 protein stability with CHX, immunoblotting in 786-O cells (FIG. 3B); assay type: cell-based, human; details: 10 μM with CHX
Procedure: as §3, §2

NCI60 cell lines = experiment: Cell viability TCA assay in NCI60 cell lines (FIG. 4); assay type: cell-based, human; details: 48 h
Procedure: FIGS. 4A, 4B & 4C. […] TCA assay was conducted in the NCI60 cell lines treated with Compound 2288 as described in the Materials and Methods. Compound 2288 inhibited various cancer cell growth.
TCA assay was conducted by NCI Developmental Therapeutics Program. Briefly, cells were plated in 96-well plates, and after appropriate treatments, the plates are incubated for an additional 48 h at 37° C., 5% CO2. 95% air, and 100% relative humidity. The assay was terminated by the addition of cold TCA. Cells were fixed by the addition of 50 μl of cold 50% (w/v) TCA (final concentration, 10% TCA) and incubated for 60 minutes at 4° C. The plates were washed water and air dried. Sulforhodamine B (SRB) solution (100 μl) at 0.4% (w/v) in 1% acetic acid was added to each well, and plates were incubated for 10 minutes at room temperature. After staining, the plates were washed with 1% acetic acid and air dried. Bound stain was subsequently solubilized with 10 mM trizma base, and the absorbance was read on an automated plate reader at a wavelength of 515 nm.

p21 [4] = experiment: Immunofluorescence staining of p21 in 786-O cells (FIG. 5); assay type: cell-based, human; details: 10 μM, 24 h, confocal microscopy
Procedure: FIG. 5. […] 786-O cells were grown to confluence on 8-well chamber slides and treated with either Compound 2288 at 10 μM concentration or vehicle (DMSO) for 24 h. Immunofluorescence staining of p21 was visualized by confocal microscopy as described in Materials and Methods. p21 is green and the nuclear dye (DAPI) is blue. The experiment shown is representative of at least 3 separate experiments.
After appropriate treatments in 8 well chamber slides. immunofluorescence was conducted as described previously.^19 Briefly, the cells were fixed in 2% paraformaldehyde and blocked in the blocking buffer. After blocking, the cells were incubated with appropriate antibody, incubated with anti-mouse or anti-rabbit IgG (H+L), F(ab′)2 Fragment (Alexa Fluor® 488 Conjugate), and coverslipped with vectashield with DAPI. The specimens were examined by confocal microscopy.

p21 [5] = details: Inoue et al. (2011) Cancer Biol. Ther.; cited from earlier work

T3 sequence (P15056 whole entry V600E): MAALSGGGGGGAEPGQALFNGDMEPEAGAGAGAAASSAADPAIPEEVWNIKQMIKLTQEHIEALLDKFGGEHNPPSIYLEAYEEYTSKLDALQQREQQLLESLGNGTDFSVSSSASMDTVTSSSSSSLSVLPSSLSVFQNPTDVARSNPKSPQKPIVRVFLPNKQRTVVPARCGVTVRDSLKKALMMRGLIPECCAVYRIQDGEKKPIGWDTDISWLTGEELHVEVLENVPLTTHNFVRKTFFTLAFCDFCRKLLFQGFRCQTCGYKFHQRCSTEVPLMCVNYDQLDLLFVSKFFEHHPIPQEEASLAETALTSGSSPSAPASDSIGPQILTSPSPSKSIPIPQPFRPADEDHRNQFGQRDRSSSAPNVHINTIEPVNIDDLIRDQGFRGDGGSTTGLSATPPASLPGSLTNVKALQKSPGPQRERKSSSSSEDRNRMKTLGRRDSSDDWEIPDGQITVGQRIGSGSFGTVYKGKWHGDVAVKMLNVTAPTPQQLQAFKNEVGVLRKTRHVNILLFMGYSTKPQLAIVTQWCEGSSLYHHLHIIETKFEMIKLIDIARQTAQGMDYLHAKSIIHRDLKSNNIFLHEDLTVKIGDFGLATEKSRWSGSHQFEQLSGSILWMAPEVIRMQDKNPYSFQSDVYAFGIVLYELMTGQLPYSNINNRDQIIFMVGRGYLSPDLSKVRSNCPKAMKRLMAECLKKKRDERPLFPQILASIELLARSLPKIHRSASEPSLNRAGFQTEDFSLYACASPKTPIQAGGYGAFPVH

| Compound | p21 inhibition (p21 [1]) | further results |
| --- | --- | --- |
| CCC(=O)N1CCC(NC(=O)NC23CC4CC(CC(C4)C2)C3)CC1 [Compound 1163] | − |  |
| O=C(NC12CC3CC(CC(C3)C1)C2)N[C@H]1CC[C@H](Oc2ccc(C(=O)O)cc2)CC1 [Compound 1471] | − |  |
| CS(=O)(=O)N1CCC(NC(=O)Nc2ccc(OC(F)(F)F)cc2)CC1 [Compound 1709] | − |  |
| O=C(Nc1ccc(OC(F)(F)F)cc1)N[C@H]1CC[C@H](Oc2ccc(C(=O)O)cc2)CC1 [Compound 1728] | − |  |
| CCC(=O)N1CCC(NC(=O)Nc2ccc(OC(F)(F)F)cc2)CC1 [Compound 1770] | − |  |
| N#Cc1ccc(O[C@H]2CC[C@H](NC(=O)Nc3ccc(Cl)c(C(F)(F)F)c3)CC2)cc1 [Compound 2182] | + |  |
| O=C(Nc1ccc(Cl)c(C(F)(F)F)c1)N[C@H]1CC[C@H](Oc2ccc(C(=O)O)cc2)CC1 [Compound 2221] | − | IC50 (Raf-1): 4.3 ± 0.4 µM |
| CNC(=O)c1ccc(O[C@H]2CC[C@H](NC(=O)NC34CC5CC(CC(C5)C3)C4)CC2)cc1 [Compound 2225] | − |  |
| CNC(=O)c1ccc(O[C@H]2CC[C@H](NC(=O)Nc3ccc(OC(F)(F)F)cc3)CC2)cc1 [Compound 2227] | − |  |
| CNC(=O)c1ccc(O[C@H]2CC[C@H](NC(=O)Nc3ccc(Cl)c(C(F)(F)F)c3)CC2)cc1 [Compound 2253] | − | IC50 (human sEH): 0.0005 µM; IC50 (Raf-1): 0.34 ± 0.04 µM; IC50 (b-Raf (V600E)): > 10 µM |
| CNC(=O)c1cc(O[C@H]2CC[C@H](NC(=O)Nc3ccc(Cl)c(C(F)(F)F)c3)CC2)ccn1 [Compound 2278] | + |  |
| O=C(Nc1ccc(Cl)c(C(F)(F)F)c1)N[C@H]1CC[C@H](Oc2ccc(C(F)(F)F)cn2)CC1 [Compound 2288] | + | IC50 (human sEH): 0.0005 µM; levels of other proteins (p-Akt, p-ERK, t-Akt, t-ERK, p53) (p21 [2]): not levels of other proteins; p21 protein level (p21 [2]): consistently decreases p21 protein level; p21 mRNA expression (p21 mRNA): decreases p21 mRNA expression; p21 protein stability (p21 [3]): no effect on p21 protein stability; cancer cell growth (NCI60 cell lines): inhibits cancer cell growth; cytosolic p21 (p21 [4]): decreases cytosolic p21 |
| CNC(=O)c1ccc(OC2CCC(NC(=O)Nc3ccc(Cl)c(C(F)(F)F)c3)CC2)cn1 (stereo not shown) [Compound 2316] | + | IC50 (human sEH): 0.0005 µM; IC50 (Raf-1): 0.175 ± 0.02 µM; IC50 (b-Raf (V600E)): 0.2 ± 0.15 µM |
| CNC(=O)c1cc(O[C@H]2CC[C@@H](NC(=O)Nc3ccc(Cl)c(C(F)(F)F)c3)CC2)ccn1 [Compound 2319] | + | IC50 (human sEH): 0.0005 µM |
| CCN(CC)C(=O)c1cc(O[C@H]2CC[C@H](NC(=O)Nc3ccc(Cl)c(C(F)(F)F)c3)CC2)ccn1 [Compound 2574] | + |  |
| CNC(=O)c1cc(O[C@H]2CC[C@H](NC(=O)Nc3ccc(OC(F)(F)F)cc3)CC2)ccn1 [Compound 2575] | − |  |
| CNC(=O)c1cc(Oc2ccc(NC(=O)Nc3ccc(OC(F)(F)F)cc3)cc2)ccn1 [Compound 2576] | + | IC50 (human sEH): 0.0005 µM; IC50 (Raf-1): 0.03 µM |
| CCN(CC)C(=O)c1cc(O[C@H]2CC[C@H](NC(=O)Nc3ccc(OC(F)(F)F)cc3)CC2)ccn1 [Compound 2577] | + |  |
| O=C(Nc1ccc(OC(F)(F)F)cc1)N[C@H]1CC[C@H](Oc2ccnc(C(=O)N3CCCC3)c2)CC1 [Compound 2578] | − |  |
| N#Cc1ccc(O[C@H]2CC[C@H](NC(=O)Nc3ccc(C(F)(F)F)cc3)CC2)cc1 [Compound 2579] | + |  |
| N#Cc1ccc(O[C@H]2CC[C@H](NC(=O)Nc3ccc(OC(F)(F)F)cc3)CC2)cc1 [Compound 2581] | + |  |
| CNC(=O)c1cc(Oc2ccc(NC(=O)Nc3ccc(Cl)c(C(F)(F)F)c3)cc2)ccn1 [Sorafenib, reference compound] | + | p21 inhibition (reported) (p21 [5]): potent and stable p21 inhibitor |
